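Five compound concentrations were applied to cells in 96-well plates for 48 hours; endpoints were derived by simple linear interpolation of the resulting dose-response curve. GI50 is the concentration that inhibits growth by half.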 The source made the active and inactive calls. Cut-off read from the data, not from the text of the source: active = GI50 up to about 1.1 µM and inactive = higher.
Experiments:
Assay in all cases: NCI anticancer screen, dose series, 48 h
[1] = system: SNB-19
[2] = system: SNB-75
[3] = system: HL-60
[4] = system: OVCAR-5
[5] = system: HCT-15
[6] = system: HCC 2998
[7] = system: CAKI-1
[8] = system: MDA-N
[9] = system: OVCAR-3
[10] = system: SF-295
[11] = system: HT-29
[12] = system: NCI/ADR-RES
[13] = system: OVCAR-4
[14] = system: UACC-257
[15] = system: 786-0
[16] = system: SK-MEL-28
[17] = system: UO-31
[18] = system: NCI-H23
[19] = system: COLO 205
[20] = system: NCI-H522
[21] = system: ACHN
[22] = system: MCF7
[23] = system: A549
[24] = system: PC-3
[25] = system: RXF 393
[26] = system: SN12C
[27] = system: HOP-92
[28] = system: NCI-H226
[29] = system: IGROV-1
[30] = system: Malme-3M
[31] = system: NCI-H460
[32] = system: DU-145
[33] = system: MDA-MB-435
[34] = system: TK-10
[35] = system: HOP-62
[36] = system: RPMI-8226
[37] = system: SR
[38] = system: SW-620
[39] = system: HCT-116
[40] = system: U-251
[41] = system: LOX IMVI
[42] = system: SK-MEL-5
[43] = system: KM12
[44] = system: CCRF-CEM
[45] = system: SF-539
[46] = system: EKVX
[47] = system: MDA-MB-231
[48] = system: K562
[49] = system: BT-549
[50] = system: A498
[51] = system: OVCAR-8
[52] = system: SF-268
[53] = system: Hs-578T
[54] = system: MOLT-4
[55] = system: M14
[56] = system: SK-MEL-2

CN(C)c1ccc(C2=C([O-])c3cc(-[n+]4ccccc4)ccc3C2=O)cc1
GI50 [1]: > 100 µM (inactive)
GI50 [2]: > 100 µM (inactive)
GI50 [3]: > 100 µM (inactive)
GI50 [4]: > 100 µM (inactive)
GI50 [5]: > 100 µM
GI50 [6]: > 100 µM (inactive)
GI50 [7]: > 100 µM (inactive)
GI50 [8]: > 100 µM (inactive)
GI50 [9]: > 100 µM (inactive)
GI50 [10]: > 100 µM (inactive)
GI50 [11]: > 100 µM (inactive)
GI50 [12]: > 100 µM (inactive)
GI50 [13]: > 100 µM (inactive)
GI50 [14]: > 100 µM (inactive)
GI50 [15]: > 100 µM (inactive)
GI50 [16]: > 100 µM (inactive)
GI50 [17]: > 100 µM (inactive)
GI50 [18]: > 100 µM (inactive)
GI50 [19]: > 100 µM (inactive)
GI50 [20]: > 100 µM (inactive)
GI50 [21]: > 100 µM (inactive)
GI50 [22]: > 100 µM (inactive)
GI50 [23]: > 100 µM (inactive)
GI50 [24]: > 100 µM (inactive)
GI50 [25]: > 100 µM (inactive)
GI50 [26]: > 100 µM (inactive)
GI50 [27]: > 100 µM (inactive)
GI50 [28]: > 100 µM (inactive)
GI50 [29]: > 100 µM (inactive)
GI50 [30]: > 100 µM (inactive)
GI50 [31]: > 100 µM (inactive)
GI50 [32]: > 100 µM (inactive)
GI50 [33]: > 100 µM (inactive)
GI50 [34]: > 100 µM (inactive)
GI50 [35]: > 100 µM (inactive)
GI50 [36]: > 100 µM (inactive)
GI50 [37]: > 100 µM (inactive)
GI50 [38]: > 100 µM (inactive)
GI50 [39]: > 100 µM (inactive)
GI50 [40]: > 100 µM (inactive)
GI50 [41]: > 100 µM (inactive)
GI50 [42]: > 100 µM (inactive)
GI50 [43]: > 100 µM (inactive)
GI50 [44]: > 100 µM (inactive)
GI50 [45]: > 100 µM (inactive)
GI50 [46]: > 100 µM (inactive)
GI50 [47]: > 100 µM (inactive)
GI50 [48]: > 100 µM (inactive)
GI50 [49]: > 100 µM (inactive)
GI50 [50]: > 100 µM (inactive)
GI50 [51]: > 100 µM (inactive)
GI50 [52]: > 100 µM (inactive)
GI50 [53]: > 100 µM (inactive)
GI50 [54]: > 100 µM (inactive)

O=C(O)Cc1ccc(-n2nnc3c(=O)[nH][nH]c(=O)c32)cc1
GI50 [1]: > 100 µM (inactive)
GI50 [3]: > 100 µM (inactive)
GI50 [4]: > 100 µM (inactive)
GI50 [5]: > 100 µM
GI50 [6]: > 100 µM (inactive)
GI50 [7]: > 100 µM (inactive)
GI50 [8]: > 100 µM (inactive)
GI50 [9]: > 100 µM (inactive)
GI50 [10]: > 100 µM (inactive)
GI50 [11]: > 100 µM (inactive)
GI50 [12]: > 100 µM (inactive)
GI50 [13]: > 100 µM (inactive)
GI50 [14]: > 100 µM (inactive)
GI50 [15]: > 100 µM (inactive)
GI50 [16]: > 100 µM (inactive)
GI50 [17]: > 100 µM (inactive)
GI50 [18]: > 100 µM (inactive)
GI50 [19]: > 100 µM (inactive)
GI50 [21]: > 100 µM (inactive)
GI50 [22]: > 100 µM (inactive)
GI50 [23]: > 100 µM (inactive)
GI50 [24]: > 100 µM (inactive)
GI50 [26]: > 100 µM (inactive)
GI50 [55]: > 100 µM (inactive)
GI50 [27]: > 100 µM (inactive)
GI50 [30]: > 100 µM (inactive)
GI50 [31]: > 100 µM (inactive)
GI50 [32]: > 100 µM (inactive)
GI50 [33]: > 100 µM (inactive)
GI50 [34]: > 100 µM (inactive)
GI50 [35]: > 100 µM (inactive)
GI50 [56]: > 100 µM (inactive)
GI50 [36]: > 100 µM (inactive)
GI50 [37]: > 100 µM (inactive)
GI50 [39]: > 100 µM (inactive)
GI50 [40]: > 100 µM (inactive)
GI50 [41]: > 100 µM (inactive)
GI50 [42]: > 100 µM (inactive)
GI50 [43]: > 100 µM (inactive)
GI50 [44]: > 100 µM (inactive)
GI50 [46]: > 100 µM (inactive)
GI50 [47]: > 100 µM (inactive)
GI50 [48]: > 100 µM (inactive)
GI50 [49]: > 100 µM (inactive)
GI50 [51]: > 100 µM (inactive)
GI50 [54]: > 100 µM (inactive)

Source: ChEMBL document CHEMBL1201862, “PubChem BioAssay data set” (2004)
